In patent US10064858B2, “Methods and compositions for treating bacterial infections with iron chelators” (THE UNITED STATES OF AMERICA, AS REPRESENTED BY THE …, priority 2011, dated 2018):
“Also recorded” adds a separate entry of the source.

Experiments:
A. baumannii = assay: Growth (OD600) with VK28 added at different times post-inoculation; type: cell-based; details: 200 μM VK28 added at 0, 4, 8, 12, 16, 20 hr post-inoculation; low-iron M9
Description: A. baumannii was grown in low-iron M9 media and challenged with 200 μM VK28 at 0 hr (▪), 4 hr (▴), 8 hr (▪), 12 hr (▪), 16 hr (•), and 20 hr (▪) post-inoculation. Growth was estimated by absorbance at 600 nm every 4 hr for 24 hr.

[1] = system: Extended Spectrum Beta-Lactamase (ESBL) Escherichia coli; assay: Growth (OD600) of MDR bacteria with VK28 in low-iron M9 media; type: cell-based; details: 200 μM VK28
Description: (§1) Isolates of Extended Spectrum Beta-Lactamase (ESBL) Escherichia coli, Klebsiella pneumoniae, Pseudomonas aeruginosa, and Methicillin-Resistant Staphylococcus aureus (MRSA) were challenged with either 0 μM, 100 μM or 200 μM VK28 in low-iron M9 media after 4 hr of growth. Growth was estimated by absorbance at 600 nm at 24 hr post inoculation.

Klebsiella pneumoniae = assay: as above; type: cell-based; details: 200 μM VK28
Description: as §1

[2] = system: Methicillin-Resistant Staphylococcus aureus (MRSA); assay: as above; type: cell-based; details: both 100 μM and 200 μM VK28
Description: as §1

Pseudomonas aeruginosa = assay: as above; type: cell-based; details: 200 μM VK28
Description: as §1

[3] = system: Tetracycline-resistant A. baumannii; assay: Growth (OD600) with VK28, tetracycline or both; type: cell-based
Excerpt: Growth was estimated by absorbance at 600 nm at 24 hr. (y-axis).

MRSA ATCC SA43300 = assay: Time-kill assay in CAMHB; type: cell-based, S. aureus; details: 1×MIC and 2×MIC VK28
Description: Reductions in colony forming units (CFU)/mL were determined over time (time-kill assay) after exposure to VK28 and deferiprone (DFP), the two iron chelators that performed best in MIC assays when compared to controls. To better represent the iron content found in the human body, MIC and time-kill assays were also determined in minimal media and tissue culture media. Time-Kill assays were performed as previously described in G. P. Neupane et al., “In vitro time-kill activities of ciprofloxacin alone and in combination with the iron chelator deferasirox against Vibrio vulnificus,” European Journal of Clinical Microbiology and Infectious Diseases, 407-410 (2010); and R. L. White, et al., “Comparison of Three Different In Vitro Methods of Detecting synergy: Time-Kill, Checkerboard, and E test,” Journal of Antimicrobial Agents and Chemotherapy, 1914-1918 (1996). Initial inocula, for example 1×10^6 CFU/mL or 1×10^7 CFU/mL were challenged with iron chelator with and/or without an antibiotic. Cells were allowed to grow in CAMHB at 37° C. for 24 hours. Time-kill results were analyzed by determining the change in log 10 numbers of CFU/ml at 0, 6, and 24 h, compared to counts at 0 h. […]

Acinetobacter baumannii = assay: Growth (OD600) with VK28 in M9 media with magnesium / calcium; type: cell-based; details: 24 hours
Description: Acinetobacter baumannii was grown similar to as described in Example 21 in M9 media containing 2 mM MgSO4 for 24 hours in the presence of 0 μg/ml, 50 μg/ml, 100 μg/ml, or 200 μg/ml VK28. The OD600 was measured at 0, 4, and 24 hour and the results are shown in the time-kill curves of FIG. 19.
(§2) In this example, strains of MR Staphylococcus aureus (MRSA), Acinetobacter baumannii (Acinetobacter), Escherichia coli (E. coli), and Pseudomonas aeruginosa (Pseudomonas) were grown in M9 media in the presence of 2 mM MgSO4 and 1.35 mM CaCl2 for 24 hours in the presence or absence of 0 μg/ml, 50 μg/ml, 100 μg/ml, or 200 μg/ml of VK28. The OD600 was measured at 24 hour and the results are shown in the bar graph of FIG. 21.

[4] = system: MR Staphylococcus aureus (MRSA); assay: Growth (OD600) with VK28 in M9 media with magnesium and calcium; type: cell-based; details: M9 with 2 mM MgSO4 and 1.35 mM CaCl2; 24 hours
Description: as §2

AB5711 = assay: Effect of VK28 on the activity of antibiotics (OD600); type: cell-based, A. baumannii; details: 50 μM VK28; 30 antibiotics
Description: In some aspects of the present invention, one or more iron chelators (for example Compound 4, VK28, or its analogs or derivatives, or Apo6619) may be used in a composition or method for treating a bacterial infection with one or more antibiotics. […] Methods and compositions comprising one or more iron chelators with one or more of each of the foregoing antibiotics are hereby disclosed.
In this example, culture of AB5711 was grown overnight in LB media at 37° C. and diluted 1:100 into Media A. Cells were allowed to grow for 4 hours at 37 in 96-well plates and were then treated with antibiotics with or without 50 μM VK28. Cells were then allowed to shake for an additional 20 hours, and OD600 measurements were taken.

[5] = mouse; systemically/intravenously; cited from earlier work
[6] = system: A. baumannii strain AB19606; assay: Growth (OD600) with chelator, Rifampin or both; type: cell-based; details: 1.5×MIC Apo6619 in combination with ¾×MIC Rifampicin
Description: A. baumannii strain AB19606 was grown in CAMHB and challenged with 1.5×MIC compound 4 (Var) or 1.5×MIC Triapine (Tri) with or without 0.75×MIC Rifampin (Rif). Growth was estimated by absorbance at 600 nm (y-axis) at 0 or 24 hours.

| SMILES | continued multiplication of bacteria (OD600) (A. baumannii) | growth (OD600) at 24 hr post inoculation [1] | growth (OD600) at 24 hr post inoculation (Klebsiella pneumoniae) | OD600 at 24 hr post inoculation [2] | OD600 at 24 hr post inoculation (Pseudomonas aeruginosa) | reduction of bacteria (absorbance at 600 nm at 24 hr) ([3]; 400 μM Vk28 in combination with 16 ug/mL tetracycline) | reduction of bacteria (absorbance at 600 nm at 24 hr) ([3]; single agent: 400 μM Vk28 or 16 ug/mL tetracycline, low-iron M9) | time-kill effect (MRSA ATCC SA43300) | inhibition of growth (OD600) (Acinetobacter baumannii; M9 with 2 mM MgSO4, 50-200 μg/ml VK28) | inhibition of growth (OD600) (Acinetobacter baumannii; M9 with 2 mM MgSO4 and 1.35 mM CaCl2) | inhibition of growth (OD600) [4] | inhibition of the activity of antibiotics by VK28 (AB5711) | dose showing toxicity [5] [mg/kg] | growth (absorbance at 600 nm) at 24 hour [6] |
| --- | --- | --- | --- | --- | --- | --- | --- | --- | --- | --- | --- | --- | --- | --- |
| OCCN1CCN(Cc2ccc(O)c3ncccc23)CC1 [VK28, 5-(4-(2-hydroxyethyl)piperazin-1-ylmethyl)-8-hydroxyquinoline] | effective to halt the continued multiplication of bacteria | reduced | reduced | significantly reduced | significantly reduced | the reduction in bacteria was greater than the added reductions from separate administration of tetracycline and VK28 | significant reduction in bacteria | bacteriostatic (considered bacteriostatic if the inoculum's size was reduced by 0 to <3 log 10 CFU/ml) | inhibition of growth of Acinetobacter baumannii is not reduced in the presence of magnesium | inhibition of growth of a number of strains of bacteria is not reduced in the presence of magnesium and calcium | inhibition of growth of a number of strains of bacteria is not reduced in the presence of magnesium and calcium | only inhibited the activity of one antibiotic, namely thiamphenicol; also recorded: not shown to inhibit the activity of the antibiotics with the exception of Thiaphenicol | 30 | – |
| CNC(=O)c1c(O)c(=O)cc(C)n1C1CC1 [Apo6619, 1-cyclopropyl-3-hydroxy-6-methyl-4-oxo-1,4-dihydro-pyridine-2-carboxylic acid methylamide] | – | – | – | – | – | – | – | – | – | – | – | – | – | synergistic effect in inhibiting growth of AB19606 |
